Tests used:
[1] = target: T1, phosphor-EGFR in H1975(L585R/T790M) mutant EGFR expressing cells (Homo sapiens, UniProt P00533, L858R/T790M); assay: H1975 pEGFR MSD cellular assay; assay type: cell-based; conditions: NCI-H1975 cells, serum starved, 1 hour compound incubation, pEGFR Tyr1068 MSD; read-out: HI975 pEGFR EC50
T1 construct: host or cells: NCI-H1975
Summary of the method: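 Phospho-EGFR read by MSD electrochemiluminescence: capture with anti-pEGFR antibody (overnight, 4° C), detection with SULFO-TAG anti-total EGFR (1 hour, room temperature). Before lysis, H1975 cells starved of serum overnight got compound for 1 hour at 37° C, 0.5% DMSO final. EC50 via four-parameter logistic regression of percent inhibition.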

EGFR T790M L858R = target: T2, EGFR T790M L858R (Homo sapiens, UniProt P00533, L858R/T790M); assay: EGFR T790M L858R biochemical assay (Caliper mobility shift); conditions: 5 μM ATP; apparent Ki (Morrison fit) converted by Cheng-Prusoff, Km of ATP 1.3 μM
T2 construct: purchased Life Technologies PV4879
Summary of the method: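 Caliper mobility-shift read-out, electrophoretic separation of substrate from product, after a 30-minute kinase reaction at 22 °C. EDTA at 80 mM terminates each reaction.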

[2] = tested on: H1975 (EGFR T790M/L858R) cell proliferation; assay: H1975 proliferation assay (Cell Titer-Glo); assay type: cell-based; conditions: Homo sapiens, NCI-H1975, 72 h, NCI-H1975 cells, 72 hour incubation, read-out: H1975 antiproliferative EC50
Description: H1975 Proliferation Assays
All cell culture reagents were purchased from Invitrogen/Gibco. Cells are cultured at 37° C. at 5% CO2 and split as recommended by ATCC.

EGFR del746-750 T790M = target: T3, EGFR del746-750 T790M (Homo sapiens, UniProt P00533, DEL746-750/T790M); assay: EGFR del746-750 T790M biochemical assay (Caliper mobility shift); conditions: 5 μM ATP; apparent Ki (Morrison fit) converted by Cheng-Prusoff, Km of ATP 2.1 μM; read-out: EGFR(T790M/d746-750) Ki
T3 construct: purchased Carna Biosciences 08-528
Summary of the method: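 Caliper mobility-shift read-out, with product electrophoretically resolved from substrate and measured. Reactions were quenched with 80 mM EDTA after 30 min at 22 °C.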

T3 sequence (P00533 with tags, fused parts or gaps DEL746-750/T790M limits assumed): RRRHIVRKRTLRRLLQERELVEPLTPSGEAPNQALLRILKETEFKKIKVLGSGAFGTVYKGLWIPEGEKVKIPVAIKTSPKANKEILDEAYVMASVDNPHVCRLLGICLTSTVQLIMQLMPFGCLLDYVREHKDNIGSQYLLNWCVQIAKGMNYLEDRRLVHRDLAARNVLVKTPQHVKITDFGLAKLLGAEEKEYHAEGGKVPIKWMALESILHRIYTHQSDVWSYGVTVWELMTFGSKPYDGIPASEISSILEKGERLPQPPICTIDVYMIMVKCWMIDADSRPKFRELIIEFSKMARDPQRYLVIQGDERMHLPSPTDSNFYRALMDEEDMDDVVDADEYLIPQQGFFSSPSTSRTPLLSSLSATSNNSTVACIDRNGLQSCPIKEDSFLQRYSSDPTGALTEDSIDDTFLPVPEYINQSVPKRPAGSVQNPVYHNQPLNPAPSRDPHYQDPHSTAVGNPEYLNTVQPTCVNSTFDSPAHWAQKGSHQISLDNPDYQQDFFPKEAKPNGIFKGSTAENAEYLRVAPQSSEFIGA
T2 sequence (P00533 25-1210 T790M/L858R): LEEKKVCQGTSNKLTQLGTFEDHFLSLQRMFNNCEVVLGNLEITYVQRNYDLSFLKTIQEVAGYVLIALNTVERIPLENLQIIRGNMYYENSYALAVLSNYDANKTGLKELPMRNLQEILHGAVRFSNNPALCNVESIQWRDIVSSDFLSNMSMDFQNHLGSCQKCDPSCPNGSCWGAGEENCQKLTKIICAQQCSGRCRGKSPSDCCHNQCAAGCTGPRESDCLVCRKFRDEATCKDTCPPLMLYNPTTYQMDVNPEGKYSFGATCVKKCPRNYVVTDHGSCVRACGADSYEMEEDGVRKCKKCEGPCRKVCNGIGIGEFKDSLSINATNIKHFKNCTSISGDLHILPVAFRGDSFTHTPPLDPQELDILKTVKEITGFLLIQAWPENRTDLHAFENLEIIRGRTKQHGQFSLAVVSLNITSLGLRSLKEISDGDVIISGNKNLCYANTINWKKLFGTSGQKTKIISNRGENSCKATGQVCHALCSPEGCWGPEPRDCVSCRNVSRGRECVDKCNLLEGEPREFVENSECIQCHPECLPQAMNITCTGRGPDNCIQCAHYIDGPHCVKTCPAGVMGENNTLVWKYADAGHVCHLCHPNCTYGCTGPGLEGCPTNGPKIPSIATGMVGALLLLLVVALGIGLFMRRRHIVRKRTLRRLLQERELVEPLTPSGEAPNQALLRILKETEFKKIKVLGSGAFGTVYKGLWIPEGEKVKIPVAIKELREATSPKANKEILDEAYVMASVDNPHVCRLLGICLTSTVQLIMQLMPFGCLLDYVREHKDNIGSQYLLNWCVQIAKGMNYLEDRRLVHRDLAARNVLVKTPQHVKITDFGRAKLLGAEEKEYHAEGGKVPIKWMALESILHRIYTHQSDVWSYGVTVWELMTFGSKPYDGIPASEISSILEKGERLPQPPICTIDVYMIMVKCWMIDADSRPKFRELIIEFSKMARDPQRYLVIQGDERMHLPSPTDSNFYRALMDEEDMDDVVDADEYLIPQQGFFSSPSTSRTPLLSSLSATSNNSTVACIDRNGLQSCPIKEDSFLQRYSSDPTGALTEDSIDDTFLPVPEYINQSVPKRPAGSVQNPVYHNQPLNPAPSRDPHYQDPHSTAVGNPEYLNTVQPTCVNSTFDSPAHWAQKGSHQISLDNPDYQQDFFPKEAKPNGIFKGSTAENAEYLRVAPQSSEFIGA
T1 sequence (P00533 25-1210 T790M/L858R): as above

| SMILES | EC50 [1] [nM] | Ki (EGFR T790M L858R) [nM] | EC50 [2] [nM] | Ki (EGFR del746-750 T790M) [nM] |
| --- | --- | --- | --- | --- |
| CC[C@@H](C)n1nc(N2CC3(COC3)C2)c2cnc(Nc3ccnc(N4CC[C@](C)(O)[C@H](F)C4)n3)cc21 (single isomer, unassigned) [Example 67, (3R*,4S*)-1-{4-[1-((R)-sec-Butyl)-3-(2-oxa-6-azaspiro[3.3]hept-6-yl)-1H-pyrazolo[4,3-c]pyridin-6-ylamino]pyrimidin-2-yl}-3-fluoro-4-methylpiperidin-4-ol] | 257 | 3.9 | 1160 | 11.1 |
| CC(C)n1nc(N2CCC(O)C2=O)c2cnc(Nc3ccnc(-c4cnn(S(=O)(=O)C5CC5)c4)n3)cc21 (stereo in doubt) [Example 199, (S)-1-(6-((2-(1-(Cyclopropylsulfonyl)-1H-pyrazol-4-yl)pyrimidin-4-yl)amino)-1-isopropyl-1H-pyrazolo[4,3-c]pyridin-3-yl)-3-hydroxypyrrolidin-2-one] | 230 | 1.5 | 630 | 1.5 |
| CCC(C)n1nc(N2CCNC2=O)c2cnc(Nc3ccnc(NCC(C)(C)S(C)(=O)=O)n3)cc21 (racemic) [Example 101, 1-{1-sec-Butyl-6-[2-(2-methanesulfonyl-2-methylpropylamino)pyrimidin-4-ylamino]-1H-pyrazolo[4,3-c]pyridin-3-yl}imidazolidin-2-one] | 568 | 2.3 | 1830 | 2.4 |
| CC(C)n1nc(N2CC(O)CC2=O)c2cnc(Nc3ccnc(N4CC[C@H](O)[C@H](F)C4)n3)cc21 (mixture of isomers) [Example 173, (±)-1-(6-(2-(cis-3-Fluoro-4-hydroxypiperidin-1-yl)pyrimidin-4-ylamino)-1-isopropyl-1H-pyrazolo[4,3-c]pyridin-3-yl)-4-hydroxypyrrolidin-2-one] | 1410 | 2 | > 10000 | 4.8 |
| CC(C#N)Nc1nn(C(C)C)c2cc(Nc3ccnc(N4CC[C@H](O)[C@H](F)C4)n3)ncc12 (relative stereo) [Example 179, 2-(6-(2-(cis-3-Fluoro-4-hydroxypiperidin-1-yl)pyrimidin-4-ylamino)-1-isopropyl-1H-pyrazolo[4,3-c]pyridin-3-ylamino)propanenitrile] | 746 | 5.6 | 1480 | 15.1 |
| CC(C)n1nc(N2CC3(COC3)C2)c2cnc(Nc3ccnc(N4CC[C@](C)(O)[C@H](F)C4)n3)cc21 (racemic) [Example 64, (3RS,4SR)-3-Fluoro-1-{4-[1-isopropyl-3-(2-oxa-6-azaspiro[3,3]hept-6-yl)-1H-pyrazolo[4,3-c]pyridin-6-ylamino]pyrimidin-2-yl}-4-methylpiperidin-4-ol] | 223 | 3.6 | 701 | 16.1 |
| CC(C)n1nc(N2CC(C(C)(C)C(N)=O)C2)c2cnc(Nc3ccnc(N4CCC(C)(O)CC4)n3)cc21 [Example 84, 2-(1-(6-(2-(4-Hydroxy-4-methylpiperidin-1-yl)pyrimidin-4-ylamino)-1-isopropyl-1H-pyrazolo[4,3-c]pyridin-3-yl)azetidin-3-yl)-2-methylpropanamide] | 2140 | 6.7 | > 10000 | 20.5 |
| CC(C)n1nc(N2C[C@@H](O)[C@H](F)C2)c2cnc(Nc3ccnc(N4CC[C@H](O)[C@H](F)C4)n3)cc21 (relative stereo) [Example 131, cis-3-Fluoro-1-(4-(3-(trans-3-fluoro-4-hydroxypyrrolidin-1-yl)-1-isopropyl-1H-pyrazolo[4,3-c]pyridin-6-ylamino)pyrimidin-2-yl)piperidin-4-ol] | 129 | 0.8 | 1480 | 1.2 |
| CC(C)n1nc(NCCS(C)(=N)=O)c2cnc(Nc3ccnc(-c4cnn(S(=O)(=O)C5CC5)c4)n3)cc21 (stereo not shown) [Example 125, N^6-(2-(1-(Cyclopropylsulfonyl)-1H-pyrazol-4-yl)pyrimidin-4-yl)-1-isopropyl-N^3-(2-(S-methylsulfonimidoyl)ethyl)-1H-pyrazolo[4,3-c]pyridine-3.6-diamine] | 2840 | 1.1 | > 10000 | 0.8 |
| CC(C)n1nc(N2CC(C#N)CC2=O)c2cnc(Nc3ccnc(N4CCC(C)(O)CC4)n3)cc21 (stereo not shown) [Example 137, 1-(6-(2-(4-Hydroxy-4-methylpiperidin-1-yl)pyrimidin-4-ylamino)-1-isopropyl-1H-pyrazolo[4,3-c]pyridin-3-yl)-5-oxopyrrolidine-3-carbonitrile] | 715 | 10.1 | 1100 | 27 |
| COC1CCN(c2nccc(Nc3cc4c(cn3)c(N)nn4C[C@H]3CC[C@H](N)CC3)n2)CC1 [Example 24, 1-(4-(Aminocyclohexyl)methyl)-N^6-[2-(4-methoxypiperidin-1-yl)-pyrimidin-4-yl]-1H-pyrazolo[4,3-c]pyridine-3,6-diamine] | 2060 | 9.2 | > 10000 | 9.8 |
| CC(C)n1nc(N2CC(C(=O)NC3CC(O)C3)C2)c2cnc(Nc3ccnc(-c4cnn(S(=O)(=O)C5CC5)c4)n3)cc21 (stereo not shown) [Example 170, 1-(6-(2-(1-(Cyclopropylsulfonyl)-1H-pyrazol-4-yl)pyrimidin-4-ylamino)-1-isopropyl-1H-pyrazolo[4,3-c]pyridin-3-yl)-N-(3-hydroxycyclobutyl)azetidine-3-carboxamide] | 731 | 1.4 | > 10000 | 1.2 |
| CC(n1nc(N2CCNC2=O)c2cnc(Nc3ccnc(N4CCC(C)(O)CC4)n3)cc21)C(F)(F)F (stereo not shown) [Example 171, 1-(6-(2-(4-Hydroxy-4-methylpiperidin-1-yl)pyrimidin-4-ylamino)-1-(1,1,1-trifluoropropan-2-yl)-1H-pyrazolo[4,3-c]pyridin-3-yl)imidazolidin-2-one] | 703 | 6.2 | 1070 | 33.1 |
| CC(C)n1nc(NCCO)c2cnc(Nc3ccnc(-c4cnn(S(=O)(=O)C5CC5)c4)n3)cc21 [Example 6, 2-((6-((2-(1-(Cyclopropylsulfonyl)-1H-pyrazol-4-yl)pyrimidin-4-yl)amino)-1-isopropyl-1H-pyrazolo[4,3-c]pyridin-3-yl)amino)ethanol] | 73.8 | 0.9 | 877 | 1.2 |
| CCC(C)n1nc(N2CC(C(C)(C)O)C2)c2cnc(Nc3ccnc(N4CC[C@@H](O)[C@@H](F)C4)n3)cc21 (single isomer, unassigned) [Example 193, (3S,4R)-1-(4-((1-((R*)-sec-Butyl)-3-(3-(2-hydroxypropan-2-yl)azetidin-1-yl)-1H-pyrazolo[4,3-c]pyridin-6-yl)amino)pyrimidin-2-yl)-3-fluoropiperidin-4-ol] | 129 | 1.8 | 334 | 5.6 |
| CC(O)C1CN(c2nn(C(C)C)c3cc(Nc4ccnc(-c5cnn(S(=O)(=O)C6CC6)c5)n4)ncc23)C1 (stereo not shown) [Example 113, 1-(1-(6-(2-(1-(Cyclopropylsulfonyl)-1H-pyrazol-4-yl)pyrimidin-4-ylamino)-1-isopropyl-1H-pyrazolo[4,3-c]pyridin-3-yl)azetidin-3-yl)ethanol] | 27.6 | 0.6 | 266 | 0.5 |
| CCNC(=O)C1CN(c2nn(C(C)C)c3cc(Nc4ccnc(-c5cnn(S(=O)(=O)C6CC6)c5)n4)ncc23)C1 [Example 162, 1-(6-(2-(1-(Cyclopropylsulfonyl)-1H-pyrazol-4-yl)pyrimidin-4-ylamino)-1-isopropyl-1H-pyrazolo[4,3-c]pyridin-3-yl)-N-ethylazetidine-3-carboxamide] | 56.6 | 1 | 484 | 0.8 |
| CCC(C)n1nc(N2CCNC2=O)c2cnc(Nc3ccnc(OCC(C)(C)S(C)(=O)=O)n3)cc21 (racemic) [Example 99, 1-{1-sec-Butyl-6-[2-(2-methanesulfonyl-2-methylpropoxy)pyrimidin-4-ylamino]-1H-pyrazolo[4,3-c]pyridin-3-yl}imidazolidin-2-one] | 617 | 3.2 | 1170 | 5.6 |
| CC(C)n1nc(N2CC(C)(O)C2)c2cnc(Nc3ccnc(-c4cnn(S(=O)(=O)C5CC5)c4)n3)cc21 [Example 82, 1-(6-(2-(1-(Cyclopropylsulfonyl)-1H-pyrazol-4-yl)pyrimidin-4-ylamino)-1-isopropyl-1H-pyrazolo[4,3-c]pyridin-3-yl)-3-methylazetidin-3-ol] | 108 | 1.4 | 289 | 1.2 |
